Experimental data from PMC5844530, “Fosmetpantotenate (RE-024), a phosphopantothenate replacement therapy for pantothenate kinase-associated neurodegeneration: Mechanism of action and efficacy in nonclinical models” (PLoS ONE, 2018).
Values joined by “and” are separate entries in the source; they are usually repeats but may differ in a detail not shown here. Equal entries are not always repeated.

Key:
[1] = Pharmacokinetics in whole blood, CD-1 mice; settings: blood; for concentration at 0.083 h / concentration at 0.167 h / concentration at 0.333 h / concentration at 0.5 h / concentration at 1 h / concentration at 2 h / concentration at 0.033 h / concentration at 4 h: male, CD-1, mouse, in vivo
Experimental: (§1) The whole blood samples (0.5 mL) were collected into syringes that were prefilled with 2.5 mL of ice-cold 0.1% formic acid in acetonitrile. The volume ratio of the whole blood to 0.1% formic acid in acetonitrile was 1/5 (v/v). Samples were frozen (-70°C) until analyzed by LC-MS/MS.
(§2) Standard curves and quality control (QC) samples were prepared fresh on the day of analysis by serial dilution of the standard mixture in quenched whole blood (1 part of blood to 5 parts of 0.1% formic acid in acetonitrile) and centrifuged. […] The frozen study samples were thawed in an ice/water bath and centrifuged. Supernatant (50 μL) from standards, QC samples, and study samples was transferred to a 96-well plate and dried completely under nitrogen. The dried residues were reconstituted with 100 μL of 0.1% formic acid in water containing internal standard (5 ng/mL of ^15N/^13C3-RE-024-02) and analyzed by LC-MS/MS.
(§3) LC-MS/MS analysis for blood pharmacokinetic samples: Samples were analyzed using an Agilent 1100 binary pump (Agilent Technologies, Santa Clara, CA, USA), connected to an AB Sciex API 6500 mass spectrometer (SCIEX, Framingham, MA, USA). An electrospray ionization source was used, scanning in the positive mode. […] The chromatography column was a Varian Metasil AQ 120–5 C18 column, 5 μm, 50 x 2.00 mm (Part No. A0530050X020) at ambient temperature, with a 0.5 mL/min flow rate and a 20 μL injection volume. Mobile phase (A) consisted of 0.1% formic acid in water; while mobile phase (B) consisted of 0.1% formic acid in acetonitrile:water (9:1, v/v).
(§4) Quantitation of in vivo samples: Peak areas were integrated using Analyst software (AB Sciex, Concord, Ontario, Canada). […] Calibration standards (at a minimum 7 per curve) were fit by linear regression with (1/x^2) weighting. QC samples were used (triplicate) at 3 concentrations for all tandem mass spectrometry (MS/MS) runs.
(§5) Pharmacokinetic calculations: PK analysis was performed using Phoenix WinNonlin®, Build 6.3.0.395 (Certara, Princeton, NJ, USA) using a non-compartmental model (PO dose = model 200 for extravascular dosing). […] Post-dose concentrations below the limit of quantitation (BLQ) were omitted from calculation.

[2] = Pharmacokinetics in whole blood, Sprague-Dawley rats; settings: male Sprague-Dawley rats, fosmetpantotenate 100 mg/kg oral, blood, BQL <1.26 nM; for Fosmetpantotenate Conc.: individual animals
Experimental: as §1, §2, §3, §4, §5

## COC(=O)CCNC(=O)[C@H](O)C(C)(C)COP(=O)(N[C@@H](C)C(=O)OC)Oc1ccccc1 (mixture of isomers) [Fosmetpantotenate]
[1]; fosmetpantotenate 100 mg/kg PO, 0.033 hr, individual animals
  Conc.: 6.22 nM and BQL and 218.78 ^(a) nM and 9.40 nM
[1]; fosmetpantotenate 100 mg/kg PO, 0.083 hr, individual animals
  Conc.: BQL and 1.94 nM
[1]; fosmetpantotenate 100 mg/kg PO, 0.167 hr, individual animals
  Conc.: BQL and 2.30 nM
[1]; fosmetpantotenate 100 mg/kg PO, 0.333 hr, individual animals
  Conc.: 2.38 nM and 1.98 nM
[1]; fosmetpantotenate 100 mg/kg PO, 0.5 hr, individual animals
  Conc.: BQL and 1.43 nM
[1]; fosmetpantotenate 100 mg/kg PO, 1 hr, individual animals
  Conc.: BQL and 1.77 nM
[1]; fosmetpantotenate 100 mg/kg PO, 2 hr, individual animals
  Conc.: BQL
[1]; fosmetpantotenate 100 mg/kg PO, 4 hr
  Mean Conc.: BQL
[1]; fosmetpantotenate 100 mg/kg PO, 4 hr, individual animals
  Conc.: BQL
[1]; fosmetpantotenate 100 mg/kg PO, 8 hr
  Mean Conc.: BQL
[1]; fosmetpantotenate 100 mg/kg PO, 8 hr, individual animals
  Conc.: BQL
[1]; fosmetpantotenate 300 mg/kg PO, 0.033 hr, individual animals
  Conc.: 1.41 nM and 49.95 nM and 66.65 nM and 2.76 nM
[1]; fosmetpantotenate 300 mg/kg PO, 0.083 hr, individual animals
  Conc.: 5.50 nM and 4.59 nM and 18.72 nM and 28.96 nM
[1]; fosmetpantotenate 300 mg/kg PO, 0.167 hr, individual animals
  Conc.: 1.62 nM and 1.56 nM and 3.71 nM and BQL
[1]; fosmetpantotenate 300 mg/kg PO, 0.333 hr, individual animals
  Conc.: 1.22 nM and 1.07 nM and 1.14 nM
[1]; fosmetpantotenate 300 mg/kg PO, 0.5 hr, individual animals
  Conc.: 1.14 nM and 1.24 nM
[1]; fosmetpantotenate 300 mg/kg PO, 1 hr, individual animals
  Conc.: BQL
[1]; fosmetpantotenate 300 mg/kg PO, 2 hr
  Mean Conc.: BQL
[1]; fosmetpantotenate 300 mg/kg PO, 2 hr, individual animals
  Conc.: BQL
[1]; fosmetpantotenate 300 mg/kg PO, 4 hr, individual animals
  Conc.: BQL
[1]; fosmetpantotenate 300 mg/kg PO, 8 hr
  Mean Conc.: BQL
[1]; fosmetpantotenate 300 mg/kg PO, 8 hr, individual animals
  Conc.: BQL
[1]; male CD-1 mice, fosmetpantotenate 700 mg/kg oral, 0.033 hr, individual animals, BQL <1.02 nM
  Fosmetpantotenate Conc.: 61.71 nM and 230.17 nM and 51.34 nM and 195.45 nM
[1]; male CD-1 mice, fosmetpantotenate 700 mg/kg oral, 0.083 hr, individual animals, BQL <1.02 nM
  Fosmetpantotenate Conc.: 24.28 nM and 3756.01(a) nM and 8.28 nM and 16.06 nM
[1]; male CD-1 mice, fosmetpantotenate 700 mg/kg oral, 0.167 hr, individual animals, BQL <1.02 nM
  Fosmetpantotenate Conc.: 575.42 nM and 158.08 nM and 6.93 nM and 488.15 nM
[1]; male CD-1 mice, fosmetpantotenate 700 mg/kg oral, 0.333 hr, individual animals, BQL <1.02 nM
  Fosmetpantotenate Conc.: 22.76 nM
[1]; male CD-1 mice, fosmetpantotenate 700 mg/kg oral, 0.5 hr, individual animals, BQL <1.02 nM
  Fosmetpantotenate Conc.: 3.33 nM and 21.75 nM and 6.47 nM and 283.28 nM
[1]; male CD-1 mice, fosmetpantotenate 700 mg/kg oral, 1 hr, individual animals, BQL <1.02 nM
  Fosmetpantotenate Conc.: 128.99 nM and 6.41 nM and 3.33 nM and 67.53 nM
[1]; male CD-1 mice, fosmetpantotenate 700 mg/kg oral, 2 hr, individual animals, BQL <1.02 nM
  Fosmetpantotenate Conc.: 1.29 nM and 1.18 nM and 1.64 nM and 16.31 nM
[1]; male CD-1 mice, fosmetpantotenate 700 mg/kg oral, 4 hr, individual animals, BQL <1.02 nM
  Fosmetpantotenate Conc.: BQL
[1]; male CD-1 mice, fosmetpantotenate 700 mg/kg oral, 8 hr, individual animals, BQL <1.02 nM
  Fosmetpantotenate Conc.: BQL
[1]; male CD-1 mice, fosmetpantotenate 700 mg/kg oral, 8 hr, mean, BQL <1.02 nM
  Fosmetpantotenate Mean Conc.: BQL
[1]; 100 mg/kg, Conc., fosmetpantotenate 100 mg/kg PO, 0.083 hr, individual animals
  concentration at 0.083 h: 2 nM
[1]; 100 mg/kg, Conc., fosmetpantotenate 100 mg/kg PO, 0.167 hr, individual animals
  concentration at 0.167 h: 1.31 nM
[1]; 100 mg/kg, Conc., fosmetpantotenate 100 mg/kg PO, 0.333 hr, individual animals
  concentration at 0.333 h: 1.31 nM
[1]; 100 mg/kg, Conc., fosmetpantotenate 100 mg/kg PO, 0.5 hr, individual animals
  concentration at 0.5 h: 1.35 nM
[1]; 100 mg/kg, Conc., fosmetpantotenate 100 mg/kg PO, 1 hr, individual animals
  concentration at 1 h: 1.26 nM
[1]; 100 mg/kg, Conc., fosmetpantotenate 100 mg/kg PO, 2 hr, individual animals
  concentration at 2 h: 2.97 nM
[1]; 100 mg/kg, Mean Conc., fosmetpantotenate 100 mg/kg PO, 0.033 hr
  concentration at 0.033 h: 7.81 nM
[1]; 100 mg/kg, Mean Conc., fosmetpantotenate 100 mg/kg PO, 0.083 hr
  concentration at 0.083 h: 1.97 nM
[1]; 100 mg/kg, Mean Conc., fosmetpantotenate 100 mg/kg PO, 0.167 hr
  concentration at 0.167 h: 1.8 nM
[1]; 100 mg/kg, Mean Conc., fosmetpantotenate 100 mg/kg PO, 0.333 hr
  concentration at 0.333 h: 1.74 nM
[1]; 100 mg/kg, Mean Conc., fosmetpantotenate 100 mg/kg PO, 0.5 hr
  concentration at 0.5 h: 1.39 nM
[1]; 100 mg/kg, Mean Conc., fosmetpantotenate 100 mg/kg PO, 1 hr
  concentration at 1 h: 1.52 nM
[1]; 100 mg/kg, Mean Conc., fosmetpantotenate 100 mg/kg PO, 2 hr
  concentration at 2 h: 2.97 nM
[1]; 300 mg/kg, Conc., fosmetpantotenate 300 mg/kg PO, 0.333 hr, individual animals
  concentration at 0.333 h: 1.43 nM
[1]; 300 mg/kg, Conc., fosmetpantotenate 300 mg/kg PO, 0.5 hr, individual animals
  concentration at 0.5 h: 1.83 nM
[1]; 300 mg/kg, Conc., fosmetpantotenate 300 mg/kg PO, 1 hr, individual animals
  concentration at 1 h: 1.14 nM
[1]; 300 mg/kg, Conc., fosmetpantotenate 300 mg/kg PO, 4 hr, individual animals
  concentration at 4 h: 1.03 nM
[1]; 300 mg/kg, Mean Conc., fosmetpantotenate 300 mg/kg PO, 0.033 hr
  concentration at 0.033 h: 30.2 nM
[1]; 300 mg/kg, Mean Conc., fosmetpantotenate 300 mg/kg PO, 0.083 hr
  concentration at 0.083 h: 14.4 nM
[1]; 300 mg/kg, Mean Conc., fosmetpantotenate 300 mg/kg PO, 0.167 hr
  concentration at 0.167 h: 2.3 nM
[1]; 300 mg/kg, Mean Conc., fosmetpantotenate 300 mg/kg PO, 0.333 hr
  concentration at 0.333 h: 1.22 nM
[1]; 300 mg/kg, Mean Conc., fosmetpantotenate 300 mg/kg PO, 0.5 hr
  concentration at 0.5 h: 1.36 nM
[1]; 300 mg/kg, Mean Conc., fosmetpantotenate 300 mg/kg PO, 1 hr
  concentration at 1 h: 1.14 nM
[1]; 300 mg/kg, Mean Conc., fosmetpantotenate 300 mg/kg PO, 4 hr
  concentration at 4 h: 1.03 nM
[1]; 700 mg/kg, Fosmetpantotenate Conc., male CD-1 mice, fosmetpantotenate 700 mg/kg oral, 0.333 hr, individual animals, BQL <1.02 nM
  concentration at 0.333 h: 24.4 nM
[1]; 700 mg/kg, Fosmetpantotenate Conc., male CD-1 mice, fosmetpantotenate 700 mg/kg oral, 4 hr, individual animals, BQL <1.02 nM
  concentration at 4 h: 1.14 nM
[1]; 700 mg/kg, Fosmetpantotenate Mean Conc., male CD-1 mice, fosmetpantotenate 700 mg/kg oral, 0.033 hr, mean, BQL <1.02 nM
  concentration at 0.033 h: 135 nM
[1]; 700 mg/kg, Fosmetpantotenate Mean Conc., male CD-1 mice, fosmetpantotenate 700 mg/kg oral, 0.083 hr, mean, BQL <1.02 nM
  concentration at 0.083 h: 16.2 nM
[1]; 700 mg/kg, Fosmetpantotenate Mean Conc., male CD-1 mice, fosmetpantotenate 700 mg/kg oral, 0.167 hr, mean, BQL <1.02 nM
  concentration at 0.167 h: 307 nM
[1]; 700 mg/kg, Fosmetpantotenate Mean Conc., male CD-1 mice, fosmetpantotenate 700 mg/kg oral, 0.333 hr, mean, BQL <1.02 nM
  concentration at 0.333 h: 23.6 nM
[1]; 700 mg/kg, Fosmetpantotenate Mean Conc., male CD-1 mice, fosmetpantotenate 700 mg/kg oral, 0.5 hr, mean, BQL <1.02 nM
  concentration at 0.5 h: 78.7 nM
[1]; 700 mg/kg, Fosmetpantotenate Mean Conc., male CD-1 mice, fosmetpantotenate 700 mg/kg oral, 1 hr, mean, BQL <1.02 nM
  concentration at 1 h: 51.6 nM
[1]; 700 mg/kg, Fosmetpantotenate Mean Conc., male CD-1 mice, fosmetpantotenate 700 mg/kg oral, 2 hr, mean, BQL <1.02 nM
  concentration at 2 h: 5.11 nM
[1]; 700 mg/kg, Fosmetpantotenate Mean Conc., male CD-1 mice, fosmetpantotenate 700 mg/kg oral, 4 hr, mean, BQL <1.02 nM
  concentration at 4 h: 1.14 nM
[2]; 0.033 hr
  Fosmetpantotenate Conc.: BQL
  Fosmetpantotenate Mean Conc.: BQL
[2]; 0.083 hr
  Fosmetpantotenate Conc.: BQL
  Fosmetpantotenate Mean Conc.: BQL
[2]; 0.167 hr
  Fosmetpantotenate Conc.: BQL
  Fosmetpantotenate Mean Conc.: BQL
[2]; 0.33 hr
  Fosmetpantotenate Conc.: BQL
  Fosmetpantotenate Mean Conc.: BQL
[2]; 0.5 hr
  Fosmetpantotenate Conc.: BQL
[2]; 1 hr
  Fosmetpantotenate Conc.: BQL
  Fosmetpantotenate Mean Conc.: BQL
[2]; 2 hr
  Fosmetpantotenate Conc.: BQL
  Fosmetpantotenate Mean Conc.: BQL
